Reference: patent US12552783B2, “Modulators of proteolysis and associated methods of use” (Arvinas Operations, Inc., priority 2018, dated 2026)

Target: KRas (Homo sapiens, UniProt P01116, G12C)
Assay: KRas degradation in NCI-H2030 cells by Western blot, normalized to GAPDH (data of Table 14)
Format: cell-based
Parameters: host or cells: NCI-H2030
Conditions: for Dmax: NCI-H2030
In short: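 KRas/GAPDH band ratio vs DMSO lane gives % degradation; values under 25% were estimated visually, the rest quantitated. Cells are G12C homozygous, serum-free for 24 h, then dosed at 0.3/1/3 μM (0.1% DMSO). VHL-based compounds 24 h, others 72 h.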

SMILES | Percent Degradation at Indicated Concentration (μM) (H2030, 0.3 μM) | Percent Degradation at Indicated Concentration (μM) (H2030, 1 μM) | Percent Degradation at Indicated Concentration (μM) (H2030, 3 μM) | Dmax | Percent Degradation at Indicated Concentration (μM): 0.3 (H2030 cells, 0.3 μM) | Percent Degradation at Indicated Concentration (μM): 1 (H2030 cells, 1 μM) | Percent Degradation at Indicated Concentration (μM): 3 (H2030 cells, 3 μM) | Dmax (H2030 cells) | Percent Degradation at Indicated Concentration (μM) (H2030 cells, 3 μM)
O=C1CCC(N2C(=O)c3ccc(OCCOCC/C=C/C(=O)N4CCN(c5ncnc6c(F)c(-c7cc(O)cc8ccccc78)c(Cl)cc56)CC4)cc3C2=O)C(=O)N1 (centres unmarked) [compound 168, (E)-5-(2-((5-(4-(6-chloro-8-fluoro-7-(3-hydroxynaphthalen-1-yl)quinazolin-4-yl)piperazin-1-yl)-5-oxopent-3-en-1-yl)oxy)ethoxy)-2-(2,6-dioxopiperidin-3-yl)isoindoline-1,3-dione] | C (Percent Degradation: C ≤ 35) | C (Percent Degradation: C ≤ 35) | C (Percent Degradation: C ≤ 35) | ≤ 35% | – | – | – | – | –
C=CC(=O)N1CCN(c2nc(NCCC(=O)N(C)CCOCCOCCOCCOc3ccc(-c4csc([C@@H]5CCCN5C(=O)[C@@H](NC(=O)[C@H](C)NC)C5CCCCC5)n4)c4ccccc34)nc3c(F)c(-c4cc(O)cc5ccccc45)c(Cl)cc23)CC1 [compound 273, 3-((4-(4-acryloylpiperazin-1-yl)-6-chloro-8-fluoro-7-(3-hydroxynaphthalen-1-yl)quinazolin-2-yl)amino)-N-(2-(2-(2-(2-((4-(2-((S)-1-((S)-2-cyclohexyl-2-((S)-2-(methylamino)propan-amido)acetyl)pyrrolidin-2-yl)thiazol-4-yl)naphthalen-1-yl)oxy)ethoxy)ethoxy)eth-oxy)ethyl)-N-methylpropanamide] | C (Percent Degradation: C ≤ 35) | C (Percent Degradation: C ≤ 35) | C (Percent Degradation: C ≤ 35) | ≤ 35% | – | – | – | – | –
Cc1ncsc1-c1ccc([C@H](C)NC(=O)[C@@H]2C[C@@H](O)CN2C(=O)[C@@H](NC(=O)COCCOCCN(C)C(=O)CCNc2nc(N3CCN(C(N)=O)CC3)c3cc(Cl)c(-c4c(O)cccc4F)c(F)c3n2)C(C)(C)C)cc1 (atropisomer, axis not shown) [compound 227, 4-((S)-6-chloro-8-fluoro-7-(2-fluoro-6-hydroxyphenyl)-2-(((S)-14-((2S,4R)-4-hydroxy-2-(((S)-1-(4-(4-methylthiazol-5-yl)phenyl)ethyl)carbamoyl)pyrrolidine-1-carbonyl)-4,15,15-trimethyl-3,12-dioxo-7,10-dioxa-4,13-diazahexadecyl)amino)quinazolin-4-yl)piperazine-1-carboxamide] | C (Percent Degradation: C ≤ 35) | C (Percent Degradation: C ≤ 35) | C (Percent Degradation: C ≤ 35) | ≤ 35% | – | – | – | – | –
C=CC(=O)N1CCN(c2nc(NCCC(=O)N(C)CCOCCOCCOCCOCCOc3cc(-c4scnc4C)ccc3CNC(=O)[C@@H]3C[C@@H](O)CN3C(=O)[C@H](c3cc(C)no3)C(C)C)nc3c(F)c(-c4cc(O)cc5ccccc45)c(Cl)cc23)CC1 [compound 346, (2S,4R)-N-(2-((18-((4-(4-acryloylpiperazin-1-yl)-6-chloro-8-fluoro-7-(3-hydroxynaphthalen-1-yl)quinazolin-2-yl)amino)-15-methyl-16-oxo-3,6,9,12-tetraoxa-15-azaoctadecyl)oxy)-4-(4-methylthiazol-5-yl)benzyl)-4-hydroxy-1-((S)-3-methyl-2-(3-methylisoxazol-5-yl)butanoyl)pyrrolidine-2-carboxamide] | C (Percent Degradation: C ≤ 35) | C (Percent Degradation: C ≤ 35) | C (Percent Degradation: C ≤ 35) | ≤ 35% | – | – | – | – | –
CN(CCOCCNc1cccc2c1C(=O)N(C1CCC(=O)NC1=O)C2=O)C(=O)CCNc1nc(N2CCN(C(N)=O)CC2)c2cc(Cl)c(-c3cc(O)cc4ccccc34)c(F)c2n1 (centres unmarked) [compound 32, 4-(6-chloro-2-((3-((2-(2-((2-(2,6-dioxopiperidin-3-yl)-1,3-dioxoisoindolin-4-yl)amino)ethoxy)ethyl)(methyl)amino)-3-oxopropyl)amino)-8-fluoro-7-(3-hydroxynaphthalen-1-yl)quinazolin-4-yl)piperazine-1-carboxamide] | C (Percent Degradation: C ≤ 35) | C (Percent Degradation: C ≤ 35) | C (Percent Degradation: C ≤ 35) | ≤ 35% | – | – | – | – | –
CC(=O)N1CCN(c2nc(NCCC(=O)N(C)CCOCCOCCOCC(=O)N[C@H](C(=O)N3C[C@H](O)C[C@H]3C(=O)N[C@@H](C)c3ccc(-c4scnc4C)cc3)C(C)(C)C)nc3c(F)c(-c4cc(O)cc5ccccc45)c(Cl)cc23)CC1 [compound 202, (2S,4R)-1-((2S)-18-((4-(4-acetylpiperazin-1-yl)-6-chloro-8-fluoro-7-(3-hydroxynaphthalen-1-yl)quinazolin-2-yl)amino)-2-(tert-butyl)-15-methyl-4,16-dioxo-6,9,12-trioxa-3,15-diazaoctadecanoyl)-4-hydroxy-N-((S)-1-(4-(4-methylthiazol-5-yl)phenyl)ethyl)pyrrolidine-2-carboxamide] | C (Percent Degradation: C ≤ 35) | C (Percent Degradation: C ≤ 35) | C (Percent Degradation: C ≤ 35) | ≤ 35% | – | – | – | – | –
CCC(=O)N1CCN(c2nc(NCCC(=O)N(C)CCOCCOCCOc3ccc4c(c3)C(=O)N(C3CCC(=O)NC3=O)C4=O)nc3c(F)c(-c4cc(O)cc5ccccc45)c(Cl)cc23)CC1 (centres unmarked) [compound 48, 3-((6-chloro-8-fluoro-7-(3-hydroxynaphthalen-1-yl)-4-(4-propionylpiperazin-1-yl)quinazolin-2-yl)amino)-N-(2-(2-(2-((2-(2,6-dioxopiperidin-3-yl)-1,3-dioxoisoindolin-5-yl)oxy)ethoxy)ethoxy)ethyl)-N-methylpropanamide] | – | – | – | – | C (C ≤ 35) | C (C ≤ 35) | C (C ≤ 35) | ≤ 35% | –
CN(CCOCCOCCOc1ccc2c(c1)C(=O)N(C1CCC(=O)NC1=O)C2=O)C(=O)CCNc1nc(N2CCN(C(=O)C(O)O)CC2)c2cc(Cl)c(-c3c(O)cccc3F)c(F)c2n1 [compound 151, 3-(((S)-6-chloro-4-(4-(2,2-dihydroxyacetyl)piperazin-1-yl)-8-fluoro-7-(2-fluoro-6-hydroxyphenyl)quinazolin-2-yl)amino)-N-(2-(2-(2-((2-(2,6-dioxopiperidin-3-yl)-1,3-dioxoisoindolin-5-yl)oxy)ethoxy)ethoxy)ethyl)-N-methylpropanamide] | – | – | – | – | – | – | – | – | C (Percent Degradation: C ≤ 35)
